# From the supplement of paper PMC10307832
# Assays:
# Assay in all cases: relative viability (nuclei count vs DMSO), 5 days (fraction); higher = more cells survive
# [1] = test system: 201T
# In short: (§1)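 Each reported value is a median over duplicate plates. It expresses relative viability: treated-well nuclei count divided by vehicle-well nuclei count. Lung cancer cell lines in 1536-well plates were dosed by pin tool a day after seeding, alone with one drug or with a fixed anchor-drug dose plus five library-drug doses (not always all listed) in √10 steps, and nuclei were counted after 5 days.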
# [2] = test system: NCI-H520
# In short: as §1
# [3] = test system: NCI-H441
# In short: as §1
# [4] = test system: LOU-NH91
# In short: as §1
# [5] = test system: NCI-H647
# In short: as §1
# [6] = test system: NCI-H322M
# In short: as §1
# [7] = test system: NCI-H1563
# In short: as §1
# [8] = test system: EPLC-272H
# In short: as §1
# [9] = test system: NCI-H2170
# In short: as §1
# [10] = test system: PC-14
# In short: as §1
# [11] = test system: NCI-H3122
# In short: as §1
# [12] = test system: H3255
# In short: as §1
# [13] = test system: UMC-11
# In short: as §1
# [14] = test system: COR-L23
# In short: as §1
# [15] = test system: HCC-15
# In short: as §1
# [16] = test system: NCI-H2405
# In short: as §1
# [17] = test system: NCI-H2023
# In short: as §1
# [18] = test system: NCI-H2347
# In short: as §1
# [19] = test system: NCI-H1734
# In short: as §1
# [20] = test system: NCI-H1650
# In short: as §1
structure (smiles),measurement,setting,value
CCN(CC)CCCCNc1ncc2cc(-c3cc(OC)cc(OC)c3)c(NC(=O)NC(C)(C)C)nc2n1 + C[C@@H](Oc1cc(-c2cnn(C3CCNCC3)c2)cnc1N)c1c(Cl)ccc(F)c1Cl [Crizotinib] (partner 1 µM),relative viability,[1]; first compound 0.01 µM,1.06
same,relative viability,[1]; first compound 0.03162 µM,1.09
same,relative viability,[1]; first compound 0.1 µM,1.06
same,relative viability,[1]; first compound 0.3162 µM,1.05
same,relative viability,[1]; first compound 1 µM,1.03
same,relative viability,[2]; first compound 0.01 µM,0.901
same,relative viability,[2]; first compound 0.03162 µM,0.825
same,relative viability,[2]; first compound 0.1 µM,0.86
same,relative viability,[2]; first compound 0.3162 µM,0.61
same,relative viability,[2]; first compound 1 µM,0.297
same,relative viability,[3]; first compound 0.01 µM,0.676
same,relative viability,[3]; first compound 0.03162 µM,0.897
same,relative viability,[3]; first compound 0.1 µM,0.73
same,relative viability,[3]; first compound 0.3162 µM,0.886
same,relative viability,[3]; first compound 1 µM,0.762
same,relative viability,[4]; first compound 0.01 µM,0.733
same,relative viability,[4]; first compound 0.03162 µM,0.723
same,relative viability,[4]; first compound 0.1 µM,0.776
same,relative viability,[4]; first compound 0.3162 µM,0.747
same,relative viability,[4]; first compound 1 µM,0.725
same,relative viability,[5]; first compound 0.01 µM,1.06
same,relative viability,[5]; first compound 0.03162 µM,1.08
same,relative viability,[5]; first compound 0.1 µM,1.53
same,relative viability,[5]; first compound 0.3162 µM,1.3
same,relative viability,[5]; first compound 1 µM,0.774
same,relative viability,[6]; first compound 0.01 µM,0.977
same,relative viability,[6]; first compound 0.03162 µM,0.912
same,relative viability,[6]; first compound 0.1 µM,0.928
same,relative viability,[6]; first compound 0.3162 µM,1.06
same,relative viability,[6]; first compound 1 µM,0.935
same,relative viability,[7]; first compound 0.01 µM,0.86
same,relative viability,[7]; first compound 0.03162 µM,0.836
same,relative viability,[7]; first compound 0.1 µM,0.816
same,relative viability,[7]; first compound 0.3162 µM,0.833
same,relative viability,[7]; first compound 1 µM,0.623
same,relative viability,[8]; first compound 0.01 µM,1.23
same,relative viability,[8]; first compound 0.1 µM,1.13
same,relative viability,[8]; first compound 0.3162 µM,1.04
same,relative viability,[8]; first compound 1 µM,0.917
same,relative viability,[9]; first compound 0.01 µM,1.35
same,relative viability,[9]; first compound 0.03162 µM,1.34
same,relative viability,[9]; first compound 0.1 µM,1.32
same,relative viability,[9]; first compound 0.3162 µM,1.27
same,relative viability,[9]; first compound 1 µM,1.16
same,relative viability,[10]; first compound 0.01 µM,0.916
same,relative viability,[10]; first compound 0.03162 µM,0.875
same,relative viability,[10]; first compound 0.1 µM,1.02
same,relative viability,[10]; first compound 0.3162 µM,1.06
same,relative viability,[10]; first compound 1 µM,0.904
same,relative viability,[11]; first compound 0.01 µM,0.273
same,relative viability,[11]; first compound 0.03162 µM,0.282
same,relative viability,[11]; first compound 0.1 µM,0.317
same,relative viability,[11]; first compound 0.3162 µM,0.291
same,relative viability,[11]; first compound 1 µM,0.279
same,relative viability,[12]; first compound 0.01 µM,0.936
same,relative viability,[12]; first compound 0.03162 µM,0.885
same,relative viability,[12]; first compound 0.1 µM,1.14
same,relative viability,[12]; first compound 0.3162 µM,1.01
same,relative viability,[12]; first compound 1 µM,0.843
same,relative viability,[13]; first compound 0.01 µM,0.691
same,relative viability,[13]; first compound 0.03162 µM,0.459
same,relative viability,[13]; first compound 0.1 µM,0.636
same,relative viability,[13]; first compound 0.3162 µM,0.805
same,relative viability,[13]; first compound 1 µM,0.554
same,relative viability,[14]; first compound 0.01 µM,0.697
same,relative viability,[14]; first compound 0.03162 µM,0.656
same,relative viability,[14]; first compound 0.1 µM,0.824
same,relative viability,[14]; first compound 0.3162 µM,0.584
same,relative viability,[14]; first compound 1 µM,0.759
same,relative viability,[15]; first compound 0.01 µM,0.919
same,relative viability,[15]; first compound 0.03162 µM,0.853
same,relative viability,[15]; first compound 0.1 µM,0.871
same,relative viability,[15]; first compound 0.3162 µM,1.25
same,relative viability,[15]; first compound 1 µM,0.699
same,relative viability,[16]; first compound 0.01 µM,0.834
same,relative viability,[16]; first compound 0.03162 µM,0.868
same,relative viability,[16]; first compound 0.1 µM,0.893
same,relative viability,[16]; first compound 0.3162 µM,0.873
same,relative viability,[16]; first compound 1 µM,0.8
same,relative viability,[17]; first compound 0.01 µM,0.646
same,relative viability,[17]; first compound 0.03162 µM,0.627
same,relative viability,[17]; first compound 0.1 µM,0.639
same,relative viability,[17]; first compound 0.3162 µM,0.725
same,relative viability,[17]; first compound 1 µM,0.655
same,relative viability,[18]; first compound 0.01 µM,0.766
same,relative viability,[18]; first compound 0.03162 µM,0.62
same,relative viability,[18]; first compound 0.1 µM,0.677
same,relative viability,[18]; first compound 0.3162 µM,0.63
same,relative viability,[18]; first compound 1 µM,0.793
same,relative viability,[19]; first compound 0.01 µM,0.652
same,relative viability,[19]; first compound 0.03162 µM,0.647
same,relative viability,[19]; first compound 0.1 µM,0.807
same,relative viability,[19]; first compound 0.3162 µM,0.719
same,relative viability,[19]; first compound 1 µM,0.667
same,relative viability,[20]; first compound 0.01 µM,1.03
same,relative viability,[20]; first compound 0.03162 µM,0.989
same,relative viability,[20]; first compound 0.1 µM,0.902
same,relative viability,[20]; first compound 0.3162 µM,1.02
same,relative viability,[20]; first compound 1 µM,0.698
